Literature values as cited in patent publication US20230218648A1, “USE OF HUMAN MILK OLIGOSACCHARIDES IN NUTRITIONAL COMPOSITIONS FOR ENHANCING BONE DEVELOPMENT AND/OR BONE STRENGTH” (SOCIETE DES PRODUITS NESTLE S.A., priority 2020, published 2023).

System: osteoclast and osteoblast biology
Conditions: reported by C.A. Cowardin et al., PNAS, 2019, 116

2′-fucosyllactose [2′-FL]
changes in bone-biology: failed to elicit changes in bone-biology
